Earlier results in patent US5346701A, “Transmucosal delivery of macromolecular drugs” (TheraTech, Inc., priority 1993, dated 1994).

Legend:
[1] = nasal membranes
[2] = test system: vascular smooth muscle cells
[3] = test system: antithrombin III (AT III); conditions: clinically used heparin
platelets = conditions: in vitro
[4] = test system: delayed-typehypersensitivity

## C[C@H](CCC(=O)O)[C@H]1CC[C@H]2[C@@H]3[C@@H](O)C[C@@H]4C[C@H](O)CC[C@]4(C)[C@H]3CC[C@]12C [ursodeoxycholate]
[1]
  order of effectiveness as enhancer of insulin absorption: deoxycholate<chenodeoxycholate<cholate<ursodeoxycholate

## heparin
thrombin
  acceleration of rate of thrombin inactivation: up to 2000 -fold
angiogenesis
  angiogenesis: inhibits angiogenesis
[2]
  proliferation of vascular smooth muscle cells: inhibits the proliferation
[3]
  proportion of heparin having high affinity for AT III: Approximately 33%
platelets
  release of platelets: enhances the release of platelets
Renal mesengial cells
  proliferation of renal mesengial cells: inhibits the proliferation
Colon of a baboon, without bile salt
  prolongation of partial thromboplastin time or release of plasma lipase activity: not apparent
With sodium cholate or deoxycholate in the formulation
  activity (partial thromboplastin time / plasma lipase): significant activity was detected
[4]
  delayed-type hypersensitivity: suppresses

## C[C@H](CCC(=O)O)[C@H]1CC[C@H]2[C@@H]3[C@H](O)C[C@@H]4C[C@H](O)CC[C@]4(C)[C@H]3C[C@H](O)[C@]12C [cholate]
[1]
  order of effectiveness as enhancer of insulin absorption: deoxycholate<chenodeoxycholate<cholate<ursodeoxycholate

## C[C@H](CCC(=O)O)[C@H]1CC[C@H]2[C@@H]3[C@H](O)C[C@@H]4C[C@H](O)CC[C@]4(C)[C@H]3CC[C@]12C [chenodeoxycholate]
[1]
  order of effectiveness as enhancer of insulin absorption: deoxycholate<chenodeoxycholate<cholate<ursodeoxycholate
